Experiment [1] addresses T1, Muscarinic acetylcholine receptor M4 (Homo sapiens) (UniProt P08173).
T1 sequence (whole entry): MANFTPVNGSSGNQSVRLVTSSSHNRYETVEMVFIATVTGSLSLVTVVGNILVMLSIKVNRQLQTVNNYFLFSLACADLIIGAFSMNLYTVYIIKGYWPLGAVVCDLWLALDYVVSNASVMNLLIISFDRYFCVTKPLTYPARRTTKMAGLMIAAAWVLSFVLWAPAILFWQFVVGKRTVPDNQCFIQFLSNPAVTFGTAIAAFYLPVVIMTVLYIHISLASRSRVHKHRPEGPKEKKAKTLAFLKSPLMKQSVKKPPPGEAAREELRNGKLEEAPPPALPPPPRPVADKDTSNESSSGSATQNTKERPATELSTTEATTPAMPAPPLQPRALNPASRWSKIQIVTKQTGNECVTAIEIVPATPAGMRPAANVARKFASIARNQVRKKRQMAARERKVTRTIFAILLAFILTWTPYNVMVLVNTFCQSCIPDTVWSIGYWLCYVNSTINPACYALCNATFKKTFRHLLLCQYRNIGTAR
As to the kind of experiment: Agonist activity at human muscarinic acetylcholine receptor M4 expressed in CHO cells. Format: functional, cell-based.

The test system of experiment [2] is Mus musculus. Nature of the experiment: Antialzheimer activity in mouse assessed as plasma concentration required for reversal of scopolamine-induced emotional memory deficits by measuring increase in freezing at 3 mg/kg, ip measured after 24 hrs by contextual fear conditioning assay. It counts as functional, organism-based.
Experiment [3] concerns Mus musculus. Nature of the experiment: Antialzheimer activity in mouse assessed as reversal of scopolamine-induced emotional memory deficits by measuring increase in freezing at 3 mg/kg, ip measured after 24 hrs by contextual fear conditioning assay. Format: functional, organism-based.
For experiment [4], the target named is Muscarinic acetylcholine receptor M3 (Homo sapiens) (UniProt P20309). As to the kind of experiment: Positive allosteric modulation of human muscarinic acetylcholine receptor M3 expressed in CHO cells. It counts as functional, cell-based.
The target of experiment [5] is T2, Muscarinic acetylcholine receptor M1 (Homo sapiens) (UniProt P11229).
T2 sequence (whole entry): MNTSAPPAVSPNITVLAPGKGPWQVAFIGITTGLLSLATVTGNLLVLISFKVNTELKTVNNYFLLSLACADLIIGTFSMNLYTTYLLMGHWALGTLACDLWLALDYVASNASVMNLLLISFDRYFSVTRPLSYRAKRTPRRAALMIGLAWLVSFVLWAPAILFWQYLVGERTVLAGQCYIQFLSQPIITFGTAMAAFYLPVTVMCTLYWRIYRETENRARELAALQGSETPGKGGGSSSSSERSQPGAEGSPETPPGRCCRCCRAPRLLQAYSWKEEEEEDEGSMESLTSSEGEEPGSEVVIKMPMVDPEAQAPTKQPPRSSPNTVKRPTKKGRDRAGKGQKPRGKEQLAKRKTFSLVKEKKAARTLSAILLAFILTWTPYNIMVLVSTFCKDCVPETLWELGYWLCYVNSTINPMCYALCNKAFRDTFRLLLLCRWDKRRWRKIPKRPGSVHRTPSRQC
Nature of the experiment: Positive allosteric modulation of human muscarinic acetylcholine receptor M1 expressed in CHO cells assessed as increase in acetylcholine-induced calcium mobilization pretreated for 4 mins followed by acetylcholine addition and measured after 4 mins by Fluo-4-AM dye based FLIPR assay. It counts as functional, cell-based.

Experiment [6] deals with T3, Muscarinic acetylcholine receptor M2 (Homo sapiens) (UniProt P08172).
T3 sequence (whole entry): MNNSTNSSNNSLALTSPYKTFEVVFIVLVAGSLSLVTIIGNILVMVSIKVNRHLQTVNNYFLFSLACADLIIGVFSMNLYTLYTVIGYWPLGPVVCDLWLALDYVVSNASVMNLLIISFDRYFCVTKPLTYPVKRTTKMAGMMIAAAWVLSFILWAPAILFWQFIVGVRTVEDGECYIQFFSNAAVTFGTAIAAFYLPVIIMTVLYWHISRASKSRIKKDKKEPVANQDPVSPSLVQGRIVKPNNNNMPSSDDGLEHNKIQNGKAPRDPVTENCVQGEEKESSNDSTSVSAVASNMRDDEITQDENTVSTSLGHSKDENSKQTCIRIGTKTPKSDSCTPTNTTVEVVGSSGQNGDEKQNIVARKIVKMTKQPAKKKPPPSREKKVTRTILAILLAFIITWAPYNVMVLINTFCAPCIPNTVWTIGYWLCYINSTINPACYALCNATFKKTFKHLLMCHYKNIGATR
Nature of the experiment: Positive allosteric modulation of human muscarinic acetylcholine receptor M2 expressed in CHO cells. It counts as functional, cell-based.

Experiment [7] has as its target T3, Muscarinic acetylcholine receptor M2 (Homo sapiens). Nature of the experiment: Agonist activity at human muscarinic acetylcholine receptor M2 expressed in CHO cells. Format: functional, cell-based.
In experiment [8] the target is T4, Muscarinic acetylcholine receptor M5 (Homo sapiens) (UniProt P08912).
T4 sequence (whole entry): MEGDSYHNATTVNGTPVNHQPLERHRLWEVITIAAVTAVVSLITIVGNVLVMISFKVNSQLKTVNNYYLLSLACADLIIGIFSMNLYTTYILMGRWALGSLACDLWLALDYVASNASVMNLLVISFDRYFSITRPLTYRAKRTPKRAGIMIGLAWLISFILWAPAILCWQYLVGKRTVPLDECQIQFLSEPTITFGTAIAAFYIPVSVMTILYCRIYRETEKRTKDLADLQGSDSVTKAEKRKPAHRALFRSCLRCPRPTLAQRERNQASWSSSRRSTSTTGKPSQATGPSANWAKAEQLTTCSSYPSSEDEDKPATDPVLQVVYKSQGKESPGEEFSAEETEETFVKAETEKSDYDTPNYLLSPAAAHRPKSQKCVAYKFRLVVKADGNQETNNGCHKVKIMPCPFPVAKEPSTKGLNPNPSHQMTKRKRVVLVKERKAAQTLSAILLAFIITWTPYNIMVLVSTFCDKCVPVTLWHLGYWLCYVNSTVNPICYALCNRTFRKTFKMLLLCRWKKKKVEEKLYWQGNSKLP
Nature of the experiment: Positive allosteric modulation of human muscarinic acetylcholine receptor M5 expressed in CHO cells. It counts as functional, cell-based.

The target of experiment [9] is T5, Muscarinic acetylcholine receptor (Canis lupus familiaris) (UniProt A0A8C0MJA7).
T5 sequence (whole entry): T2 sequence (whole entry) with V155I, P246R, A248T, A265T, Q312P, K331R, D335E, P343A, D393N
As to conditions: CHO.
Description: Positive allosteric modulation of dog muscarinic acetylcholine receptor M1 expressed in CHO cells assessed as increase in acetylcholine-induced calcium mobilization pretreated for 4 mins followed by acetylcholine addition and measured after 4 mins by Fluo-4-AM dye based FLIPR assay

The target in experiment [10] is T4, Muscarinic acetylcholine receptor M5 (Homo sapiens). Nature of the experiment: Agonist activity at human muscarinic acetylcholine receptor M5 expressed in CHO cells. It counts as functional, cell-based.
The target of experiment [11] is T1, Muscarinic acetylcholine receptor M4 (Homo sapiens). Nature of the experiment: Positive allosteric modulation of human muscarinic acetylcholine receptor M4 expressed in CHO cells. It counts as functional, cell-based.

Each structure is given as a SMILES string. Numbering of substitutions follows the chain as printed. Active and inactive are the calls of the source. The rule behind the calls is not given here.

Sequence of Muscarinic acetylcholine receptor M3 (Homo sapiens) (P20309 whole entry, looked up): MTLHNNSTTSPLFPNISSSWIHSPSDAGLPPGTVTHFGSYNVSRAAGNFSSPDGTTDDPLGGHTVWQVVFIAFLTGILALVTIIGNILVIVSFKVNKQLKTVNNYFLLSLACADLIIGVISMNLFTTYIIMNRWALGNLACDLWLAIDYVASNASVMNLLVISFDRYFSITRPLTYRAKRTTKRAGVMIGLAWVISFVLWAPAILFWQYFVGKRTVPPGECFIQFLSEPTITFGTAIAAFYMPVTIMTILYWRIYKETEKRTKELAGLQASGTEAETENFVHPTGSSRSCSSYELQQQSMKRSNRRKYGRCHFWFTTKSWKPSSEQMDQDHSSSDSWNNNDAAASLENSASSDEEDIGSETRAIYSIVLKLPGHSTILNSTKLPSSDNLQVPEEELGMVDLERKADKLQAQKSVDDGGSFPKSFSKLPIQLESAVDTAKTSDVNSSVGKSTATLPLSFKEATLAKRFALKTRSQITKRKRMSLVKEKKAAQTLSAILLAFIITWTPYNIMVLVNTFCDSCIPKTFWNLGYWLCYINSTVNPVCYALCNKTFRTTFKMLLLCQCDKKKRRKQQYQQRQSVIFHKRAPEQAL

Regarding `Cc1ccc(Cc2cc3c(=O)n([C@H]4CCCC[C@@H]4O)cnc3c3ccccc23)cn1`, the result in [1], in experiment [4], in experiment [6], in experiment [7], in experiment [8] and in [10] was inactive. The outcome in experiment [11] was inactive. Besides, the Cp in the experiment with Mus musculus [2] turned out to be 2.4 µM. The result with Mus musculus [3] was Active. Further, the IP was 19 nM in experiment [5] and 1.4 nM in experiment [9].

(Values after ChEMBL document CHEMBL4196115 (ACS Med Chem Lett, 2018).)
